Results from patent US20150141381A1, “TETRACYCLINE COMPOUNDS HAVING TARGET THERAPEUTIC ACTIVITIES” (Paratek Pharmaceuticals, Inc., priority 2001, published 2015).
Where two headings read alike, the source gives them in different places. Each block holds one compound with its values, some of them ahead of it.

What was measured:
S. aureus RN450 = experiment: In Vitro Anti-Bacterial Activity Assay (MIC), gram positive; type: cell-based; details: Staphylococcus aureus, RN450, 18 h
E. coli mL308 225 = experiment: In Vitro Anti-Bacterial Activity Assay (MIC), gram negative; type: cell-based; details: Escherichia coli, ML308225, 18 h
[1] = system: nitric oxide synthesis in the J774 cell line; experiment: Lipopolysaccharide Stimulation of Macrophage Assay (LSM Assay), inhibition of nitric oxide; type: cell-based; details: for Nitrite (inhibition of nitric oxide synthesis): LPS-stimulated J774 cells, Table 3 (Continued) key; for Nitrite: inhibition of nitric oxide synthesis, LPS (100 ng/ml) stimulated J774 cells, nitrite by Greiss Reaction, test compound 56 μg/ml
Method: This assay was used to determine the anti-inflammatory effect of tetracycline compounds of the invention by determining the modulation of nitric oxide, interleukin-10 and interleukin-12 synthesis in the J774 cell line, according to a literature procedure (D'Agostino P. et al. Int Immunopharmacol. 2001 September; 1(9-10):1765-76). J774.2 cells were stimulated with 100 ng/ml lipopolysaccharide (LPS). Nitrite, the spontaneous degradation product of nitric oxide, is measured in cell supernatants using the Greiss Reaction. In the experimental conditions, test tetracycline compounds were added 30 minutes prior to LPS stimulation. Cytotoxicity is determined using Resazurin metabolism. On the first day, a 96-well black-walled plate (except for the bottom row) was seeded with 100 μl of a 2.5×10^6 cells/ml suspension and incubated for two hours at 37° C. and 5% CO2. Towards the end of the two hour incubation period, test compounds were prepared at a concentration of 139 μg/ml, in 1.25% DMSO, a 2.5× concentration ready for addition to the cells.
At the end of the two hour incubation period, 80 μl of each of the test tetracycline compound solutions were added to the cell plates to make a final concentration of 56 μg/ml. Next, 80 μl of 1.25% DMSO in media was added to the negative control wells. Then, 80 μl of media was added to the positive control wells. The plate was then incubated for half an hour at 37° C., 5% CO2. A 10× working solution of LPS was prepared at a concentration of 1 μg/ml LPS.
After the half hour incubation period, 20 μl of LPS (1 μg/ml) in media was added to half of the test and control wells to give a final concentration of 100 ng/ml. Next, 20 μl of media was added to other half of the wells. The plate was then incubated for 24 hours at 37° C., 5% CO2. 100 μl of the supernatant from each well was collected for nitrite testing. 60 μl of the supernatant was collected for cytokine testing using an enzyme linked immunosorbant assay. The plates are then stored after being covered with sealer and frozen.
For the testing toxicity, the remaining media was blotted from the cell plates and 50 μl of Resazurin was added to each well (0.042 mg/ml in PBS w/Ca and Mg). The plate were then incubated for 45 mins, 37° C., 5% CO2, and for 30 minutes at room temperature. The plate was then read for Resazurin fluorescence.
50 μl/well of sulfanilamide solution (1% sulfanilamide in 5% […]) was added to supernatant plates. The plates were then incubated for 10 minutes at room temperature in the dark. Next, 50 μl/well NED solution (0.1% N-1-naphthylethylene diamine dihydrochloride in water) was added and incubated for 10 minutes at room temperature in the dark. Plates are then read for nitrite measurement and compared to a standard curve generated from the control wells.

[2] = system: cultured murine cortical neurons; experiment: Protection of Cultured Cortical Neurons from Excitotoxic Injury Induced by NMDA (NE Assay); type: cell-based, mice; details: NMDA 62.5 μM, LDH release 24 hours after starting the exposure
Method: Primary cortical astrocyte cultures were prepared from one-day old mice, as described in the literature procedure (Tikka, T M et al. J Immunol. 2001 Jun. 15; 166(12):7527-33). After decapitation, the forebrain cortices were collected, cleaned from meninges and, after mincing, dissociated by incubation in papain/Dnase solution followed by trituration. The dissociated cells were suspended in a culture medium consisting of Eagle's minimal essential medium (MEM) with 10% heat-inactivated fetal bovine serum and glutamine (2 mM) and plated in 75 cm^2 cell culture flasks. The medium was replaced with fresh culture medium at day 7. At confluence (day 12-15), the astrocytes were trypsinized and re-plated into 24-well culture vessels. On day 7-8, the neurons were cultured on top of these confluent astrocyte monolayers.
Cortical neuron suspensions were prepared from embryonic day 17 mice. The cortices were collected and meninges removed. The tissue was minced into small pieces and incubated in trypsin solution. The tissue was suspended using a pipette and after centrifugation resuspended and plated on top of astrocyte cultures at a density of 250,000 cells/well to 24-well culture vessel in Eagle's minimal essential medium (MEM, Earle's salts) supplemented with 20 mM glucose, 2 mM glutamine, 10% fetal bovine serum, and 10% heat-inactivated horse serum (HS). Medium was changed after 5 days to MEM containing 20 mM glucose, 2 mM glutamine, and 10% HS, as well as cytosine arabinoside (final concentration 10 μM) to inhibit cell division, and incubated for 2 days. Subsequently, cultures were fed twice weekly with MEM supplemented with 20 mM glucose, 2 mM glutamine and 10% HS, and used at day 12-15.
On the day of experiment, the culture medium was replaced with 1) MEM, 2) MEM containing the test tetracycline compounds. Positive control drug included 10 μM MK-801 (Sigma). […] As a control for total neuronal death, a 24 hour incubation with 500 μM NMDA was used (100% cell death control).
The cell viability was assessed by measuring lactate dehydrogenase (LDH) release 24 hours after starting the exposure. The LDH release to the culture medium was measured from cell-free medium using Sigma LDH reagent employing kinetic measurement of conversion of lactate to pyruvate using NADH as a cofactor. The rate of increase in absorbance at 340 nm was directly proportional to the activity of LDH in the sample, and was measured with a Labsystems Multiskan ELISA reader.

in vitro = type: cell-based; details: African green monkey (COS-1) and Chinese hamster (CHO-K1)
Method: COS-1 and CHO-K1 cell suspensions were prepared, seeded into 96-well tissue culture treated black-walled microtiter plates (density determined by cell line), and incubated overnight at 37° C., in 5% CO2 and approximately 95% humidity. The following day, serial dilutions of drug were prepared under sterile conditions and transferred to cell plates. Cell/Drug plates were incubated under the above conditions for 24 hours. Following the incubation period, media/drug was aspirated and 50 μl of Resazurin (0.042 mg/ml in PBS w/Ca and Mg) was added. The plates were then incubated under the above conditions for 2 hours and then in the dark at room temperature for an additional 30 minutes. Fluorescence measurements were taken (excitation 535 nm, emission 590 nm).

[3] = system: MMP-9 production from PMA stimulated THP-1 cells; experiment: Assay for MMP-9 Production from PMA Stimulated THP-1 Cells; type: cell-based, human; details: PMA 10 nM, 24 hours, MMP-9 ELISA of conditioned media
Method: Cultures of human monocyte THP-1 cells were suspended at 1×10^6 cells/mL in RPMI-1640 supplemented with 10% FCS. Cell suspensions (90 μL per well) were seeded into 96-well microtiter plates, and incubated for 30 minutes at 37° C., in 5% CO2 and approximately 95% humidity. Serial dilutions of test drug are prepared at 2× final concentration under sterile conditions and 100 μL was transferred to cell plates. Plates were then incubated as above for 15 minutes. PMA (phorbol-12-myristate-13-acetate) was diluted in media to 20× final concentration. 10 μL of diluted PMA was added to the cell plate, resulting in a final concentration of 10 nM. Plates were then incubated again as above for 24 hours. After 24 hours, 100 μL of conditioned media was tested for MMP-9 protein levels using the Quantikine® Human MMP-9 (total) Immunoassay from R&D Systems. MMP-9 levels were calculated based on a standard curve of purified MMP-9 dilution samples run simultaneously in the ELISA plate. This assay detected both the 92 kDa pro- and 82 kDa active forms of MMP-9.

[4] = gram positive bacteria, read-out: Antibiotic Activity Gram + (MIC)
[5] = gram negative bacteria, read-out: Antibiotic Activity Gram − (MIC)
[6] = MIC class, Table 3, read-out: Antibiotic Activity Gram +
[7] = MIC class, Table 3, read-out: Antibiotic Activity Gram −

Structure (SMILES): CN(C)[C@@H]1C(O)=C(C(N)=O)C(=O)[C@@]2(O)C(O)=C3C(=O)c4c(O)ccc(-c5ccccn5)c4C[C@H]3C[C@@H]12
MIC (S. aureus RN450; [4]): < 4 µg/mL | MIC (E. coli mL308 225; [5]): < 4 µg/mL | Nitrite (inhibition of nitric oxide synthesis) [1]: 3

Structure (SMILES): C[C@H]1c2ccc(CN3CCC(C(F)(F)F)CC3)c(O)c2C(=O)C2=C(O)[C@]3(O)C(=O)C(C(N)=O)=C(O)[C@@H](N(C)C)[C@@H]3[C@@H](O)[C@@H]21
MIC (S. aureus RN450; [4]): < 4 µg/mL | MIC (E. coli mL308 225; [5]): < 4 µg/mL | Nitrite (inhibition of nitric oxide synthesis) [1]: 3

Structure (SMILES): CC(=O)Nc1cccc(-c2cc(N(C)C)c3c(c2O)C(=O)C2=C(O)[C@]4(O)C(=O)C(C(N)=O)=C(O)[C@@H](N(C)C)[C@@H]4C[C@@H]2C3)c1 [G]
MIC (S. aureus RN450; [6]): > 4 µg/mL | MIC (E. coli mL308 225; [7]): > 4 µg/mL | Nitrite [1]: ○ | neuroprotection (cell viability by LDH release) [2]: good neuroprotection

Structure (SMILES): CN(C)c1cc(-c2ccc(CN3CCCC3)o2)c(O)c2c1C[C@H]1C[C@H]3[C@H](N(C)C)C(O)=C(C(N)=O)C(=O)[C@@]3(O)C(O)=C1C2=O [LJ]
MIC (S. aureus RN450; [6]): > 4 µg/mL | MIC (E. coli mL308 225; [7]): > 4 µg/mL | Nitrite [1]: ○

Structure (SMILES): CCCCOc1ccc(N(C)C)c2c1C(=O)C1=C(O)[C@]3(O)C(=O)C(C(N)=O)=C(O)[C@@H](N(C)C)[C@@H]3C[C@@H]1C2 [OM]
MIC (S. aureus RN450; [6]): > 4 µg/mL | MIC (E. coli mL308 225; [7]): > 4 µg/mL | Nitrite [1]: ○ | neuroprotection (cell viability by LDH release) [2]: good neuroprotection

Structure (SMILES): CCC(=O)O[C@H]1[C@H]2C(=C(O)[C@]3(O)C(=O)C(C(N)=O)=C(O)[C@@H](N(C)C)[C@H]13)C(=O)c1c(ccc(NC(=O)Nc3cccc4ccccc34)c1O)[C@@H]2C [Q]
MIC (S. aureus RN450; [6]): < 4 µg/mL | MIC (E. coli mL308 225; [7]): > 4 µg/mL | Nitrite [1]: ○ | neuroprotection (cell viability by LDH release) [2]: good neuroprotection

IC50 at 24 h (in vitro): > 25 µg/mL
Structure (SMILES): CC1c2cccc(O)c2C(=O)C2=C(O)C3(O)C(=O)C(C(N)=O)=C(O)C(N(C)C)C3C(O)C21 (centres unmarked) [doxycycline, Doxycycline]

Structure (SMILES): CN(C)CCC(=O)c1ccc(O)c2c1C[C@H]1C[C@H]3[C@H](N(C)C)C(O)=C(C(N)=O)C(=O)[C@@]3(O)C(O)=C1C2=O [drawing 4022]
MMP-9 (inhibition of MMP-9 production) [3]: 3

Structure (SMILES): CN(C)[C@@H]1C(O)=C(C(N)=O)C(=O)[C@@]2(O)C(O)=C3C(=O)c4c(O)ccc(-c5ccc(NC(=O)c6ccno6)cc5)c4C[C@H]3C[C@@H]12 [drawing 4097]
MMP-9 (inhibition of MMP-9 production) [3]: 3

Structure (SMILES): CN(C)[C@@H]1C(O)=C(C(N)=O)C(=O)[C@@]2(O)C(O)=C3C(=O)c4c(O)ccc(N5CCOCC5)c4C[C@H]3C[C@@H]12 [drawing 4289]
MMP-9 (inhibition of MMP-9 production) [3]: 2

IC50 at 24 h (in vitro): > 25 µg/mL
Structure (SMILES): CN(C)c1ccc(O)c2c1CC1CC3[C@H](N(C)C)C(O)=C(C(N)=O)C(=O)C3(O)C(O)=C1C2=O (some centres unmarked) [minocycline, Minocycline]
